Values after ≈ are worked out from the molar mass of the structure shown. Active and inactive are the calls of the source. The rule behind the calls is not given here.
What was measured:
HepG2 [1] = assay: Induction of apoptosis in human HepG2 cells assessed as late apoptotic cells at 2 uM incubated for 48 hrs by AnnexinV-FITC/PI staining based flow cytometry (reference value: 3.23%); assay type: functional
HepG2 [2] = assay: Induction of cell cycle arrest in human HepG2 cells assessed as accumulation of cells at S phase at 2 uM incubated for 48 hrs by PI staining based flow cytometry (reference value: 18%); assay type: functional
SMMC-7721 [3] = assay: Induction of cell cycle arrest in human SMMC-7721 cells assessed as downregulation of CDK4 protein expression at 2 to 8 uM incubated for 48 hrs by western blot analysis; assay type: functional, cell-based; conditions: dose 2-8 µM
HepG2 [4] = assay: Induction of cell cycle arrest in human HepG2 cells assessed as accumulation of cells at S phase at 8 uM incubated for 48 hrs by PI staining based flow cytometry (reference value: 18%); assay type: functional
HepG2 [5] = assay: Antiproliferative activity against human HepG2 cells assessed as reduction in cell viability incubated for 48 hrs by MTT assay; assay type: functional, cell-based; conditions: HepG2, 48 h
HepG2 [6] = assay: Induction of cell cycle arrest in human HepG2 cells assessed as upregulation of p21 protein expression at 2 to 8 uM incubated for 48 hrs by western blot analysis; assay type: functional, cell-based; conditions: dose 2-8 µM
SMMC-7721 [7] = assay: Induction of cell cycle arrest in human SMMC-7721 cells assessed as accumulation of cells at G0/G1 phase at 4 uM incubated for 48 hrs by PI staining based flow cytometry (reference value: 59.57%); assay type: functional
HepG2 [8] = assay: Potency index, ratio of Sorafenib IC50 to test compound IC50 for antiproliferative activity against human HepG2 cells; assay type: functional
SMMC-7721 [9] = assay: Induction of cell cycle arrest in human SMMC-7721 cells assessed as accumulation of cells at S phase at 2 uM incubated for 48 hrs by PI staining based flow cytometry (reference value: 24.94%); assay type: functional
SMMC-7721 [10] = assay: Induction of apoptosis in human SMMC-7721 cells assessed as necrotic cells at 8 uM incubated for 48 hrs by AnnexinV-FITC/PI staining based flow cytometry (reference value: 12.3%); assay type: functional
SMMC-7721 [11] = assay: Induction of apoptosis in human SMMC-7721 cells assessed as viable cells at 8 uM incubated for 48 hrs by AnnexinV-FITC/PI staining based flow cytometry (reference value: 85.1%); assay type: functional; conditions: read-out: Activity
SMMC-7721 [12] = assay: Induction of cell cycle arrest in human SMMC-7721 cells assessed as accumulation of cells at S phase at 4 uM incubated for 48 hrs by PI staining based flow cytometry (reference value: 24.94%); assay type: functional
SMMC-7721 [13] = assay: Potency index, ratio of Sorafenib IC50 to test compound IC50 for antiproliferative activity against human SMMC-7721 cells; assay type: functional
SMMC-7721 [14] = assay: Induction of apoptosis in human SMMC-7721 cells assessed as necrotic cells at 2 uM incubated for 48 hrs by AnnexinV-FITC/PI staining based flow cytometry (reference value: 12.3%); assay type: functional
SMMC-7721 [15] = assay: Induction of cell cycle arrest in human SMMC-7721 cells assessed as downregulation of p34 protein expression at 2 to 8 uM incubated for 48 hrs by western blot analysis; assay type: functional, cell-based; conditions: dose 2-8 µM
HepG2 [16] = assay: Induction of apoptosis in human HepG2 cells assessed as late apoptotic cells at 4 uM incubated for 48 hrs by AnnexinV-FITC/PI staining based flow cytometry (reference value: 3.23%); assay type: functional
HepG2 [17] = assay: Induction of cell cycle arrest in human HepG2 cells assessed as accumulation of cells at G0/G1 phase at 2 uM incubated for 48 hrs by PI staining based flow cytometry (reference value: 64.11%); assay type: functional
SMMC-7721 [18] = assay: Induction of cell cycle arrest in human SMMC-7721 cells assessed as accumulation of cells at S phase at 8 uM incubated for 48 hrs by PI staining based flow cytometry (reference value: 24.94%); assay type: functional
HepG2 [19] = assay: Induction of apoptosis in human HepG2 cells assessed as late apoptotic cells at 8 uM incubated for 48 hrs by AnnexinV-FITC/PI staining based flow cytometry (reference value: 3.23%); assay type: functional
HepG2 [20] = assay: Induction of cell cycle arrest in human HepG2 cells assessed as downregulation of Cdc2 protein expression at 2 to 8 uM incubated for 48 hrs by western blot analysis; assay type: functional, cell-based; conditions: dose 2-8 µM
HepG2 [21] = assay: Induction of apoptosis in human HepG2 cells assessed as viable cells at 4 uM incubated for 48 hrs by AnnexinV-FITC/PI staining based flow cytometry (reference value: 91.1%); assay type: functional; conditions: read-out: Activity
SMMC-7721 [22] = assay: Antiproliferative activity against human SMMC-7721 cells assessed as reduction in cell viability incubated for 48 hrs by MTT assay; assay type: functional, cell-based; conditions: Homo sapiens, SMMC-7721, 48 h; read-out: IC50
HepG2 [23] = assay: Induction of apoptosis in human HepG2 cells assessed as necrotic cells at 8 uM incubated for 48 hrs by AnnexinV-FITC/PI staining based flow cytometry (reference value: 2.22%); assay type: functional
Hep 3B2 = assay: Antiproliferative activity against human Hep3B cells assessed as reduction in cell viability incubated for 48 hrs by MTT assay; assay type: functional, cell-based
HepG2 [24] = assay: Induction of cell cycle arrest in human HepG2 cells assessed as accumulation of cells at S phase at 4 uM incubated for 48 hrs by PI staining based flow cytometry (reference value: 18%); assay type: functional
HepG2 [25] = assay: Induction of cell cycle arrest in human HepG2 cells assessed as accumulation of cells at G2/M phase at 2 uM incubated for 48 hrs by PI staining based flow cytometry (reference value: 17.89%); assay type: functional
HepG2 [26] = assay: Induction of cell cycle arrest in human HepG2 cells assessed as accumulation of cells at G0/G1 phase at 8 uM incubated for 48 hrs by PI staining based flow cytometry (reference value: 64.11%); assay type: functional
SMMC-7721 [27] = assay: Induction of cell cycle arrest in human SMMC-7721 cells assessed as accumulation of cells at G2/M phase at 8 uM incubated for 48 hrs by PI staining based flow cytometry (reference value: 15.49%); assay type: functional
SMMC-7721 [28] = assay: Induction of apoptosis in human SMMC-7721 cells assessed as late apoptotic cells at 2 uM incubated for 48 hrs by AnnexinV-FITC/PI staining based flow cytometry (reference value: 1.51%); assay type: functional
SMMC-7721 [29] = assay: Induction of apoptosis in human SMMC-7721 cells assessed as early apoptotic cells at 8 uM incubated for 48 hrs by AnnexinV-FITC/PI staining based flow cytometry (reference value: 1.13%); assay type: functional
SMMC-7721 [30] = assay: Induction of apoptosis in human SMMC-7721 cells assessed as early apoptotic cells at 2 uM incubated for 48 hrs by AnnexinV-FITC/PI staining based flow cytometry (reference value: 1.13%); assay type: functional
HepG2 [31] = assay: Induction of apoptosis in human HepG2 cells assessed as viable cells at 2 uM incubated for 48 hrs by AnnexinV-FITC/PI staining based flow cytometry (reference value: 91.1%); assay type: functional; conditions: read-out: Activity
HepG2 [32] = assay: Induction of cell cycle arrest in human HepG2 cells assessed as downregulation of p34 protein expression at 2 to 8 uM incubated for 48 hrs by western blot analysis; assay type: functional, cell-based; conditions: dose 2-8 µM
HepG2 [33] = assay: Induction of apoptosis in human HepG2 cells assessed as necrotic cells at 2 uM incubated for 48 hrs by AnnexinV-FITC/PI staining based flow cytometry (reference value: 2.22%); assay type: functional
[34] = Solubility of the compound in water incubated for 24 hrs under stirring conditions by HPLC analysis; assay type: physicochemical

## COc1ccc(-c2oc3c(CC=C(C)C)c(OCCN4CCCC4)cc(O)c3c(=O)c2O[C@H]2O[C@H](C)[C@@H](O)[C@H](O)[C@@H]2O)cc1
HepG2 [1]
  Activity: 6.26%
HepG2 [2]
  Activity: 13.7%
SMMC-7721 [3]
  Activity: Active
HepG2 [4]
  Activity: 2.47%
HepG2 [5]
  IC50: 7.6 µM
HepG2 [6]
  Activity: Active
SMMC-7721 [7]
  Activity: 65.57%
HepG2 [8]
  Ratio IC50: 2
SMMC-7721 [9]
  Activity: 23.71%
SMMC-7721 [10]
  Activity: 22.1%
SMMC-7721 [11]
  viability at 8 µM: 66.2%
SMMC-7721 [12]
  Activity: 19.6%
SMMC-7721 [13]
  Ratio IC50: 2
SMMC-7721 [14]
  Activity: 2.96%
SMMC-7721 [15]
  Activity: Active
HepG2 [16]
  Activity: 5.47%
HepG2 [17]
  Activity: 68.79%
SMMC-7721 [18]
  Activity: 12.47%
HepG2 [19]
  Activity: 17.7%
HepG2 [20]
  Activity: Active
HepG2 [21]
  viability at 4 µM: 86.2%
SMMC-7721 [22]
  IC50: 3.1 µM
HepG2 [23]
  Activity: 16.7%
Hep 3B2
  IC50: 3.9 µM
HepG2 [24]
  Activity: 9.28%
HepG2 [25]
  Activity: 17.51%
HepG2 [26]
  Activity: 91.15%
SMMC-7721 [27]
  Activity: 8.88%
SMMC-7721 [28]
  Activity: 5.9%
SMMC-7721 [29]
  Activity: 3.28%
SMMC-7721 [30]
  Activity: 1.73%
HepG2 [31]
  viability at 2 µM: 83.3%
HepG2 [32]
  Activity: Active
HepG2 [33]
  Activity: 8.93%
[34]
  solubility at 24 h: 11.8 mg/mL (≈ 19.3 mM)
